From ChEMBL document CHEMBL5131502, “Improving the treatment of Parkinson's disease: Structure-based development of novel 5-HT2A receptor antagonists/inverse agonists” (Eur J Med Chem, 2022)
In brackets after ≈: the same amount, converted by molar mass. Values belong to the compound of their own block, whether it stands above or below them.

Experiments:
[1] = target: T1, 5-hydroxytryptamine receptor 2A (Homo sapiens, UniProt P28223); assay: Inverse agonist activity at 5-HT2A receptor (unknown origin) expressed in mouse NIH3T3 cells using o-nitrophenyl-D-galacto pyranoside incubated for 120 hrs; assay type: functional, cell-based
[2] = target: T1, 5-hydroxytryptamine receptor 2A; assay: Antagonist activity at 5-HT2A receptor (unknown origin) expressed in CHO-K1 cells assessed as reduction in intracellular Ca2+ mobilization incubated for 15 mins by FLIPR assay; assay type: functional, cell-based
[3] = Metabolic stability in human liver microsomes assessed as intrinsic clearance at 100 uM preincubated for 10 mins followed by NADPH addition by LC/MS analysis; assay type: ADME, Microsome; conditions: read-out: CLH
[4] = Metabolic stability in Sprague-Dawley rat liver microsomes assessed as intrinsic clearance at 100 uM preincubated for 10 mins followed by NADPH addition by LC/MS analysis; assay type: ADME, Microsome; conditions: read-out: CLH
[5] = Metabolic stability in Sprague-Dawley rat liver microsomes assessed as half life at 100 uM preincubated for 10 mins followed by NADPH addition by LC/MS analysis; assay type: ADME, Microsome
[6] = Metabolic stability in Sprague-Dawley rat liver microsomes assessed as compound remaining at 100 uM […] followed by NADPH addition by LC/MS analysis; assay type: ADME, Microsome; conditions: read-out: Stability
[7] = Metabolic stability in human liver microsomes assessed as compound remaining at 100 uM […] followed by NADPH addition by LC/MS analysis; assay type: ADME, Microsome; conditions: read-out: Stability
[8] = target: Voltage-gated inwardly rectifying potassium channel KCNH2 (Homo sapiens, UniProt Q12809); assay: Inhibition of hERG potassium channel expressed in CHO cells at -80 mV holding potential by whole cell patch clamp assay; assay type: toxicity, cell-based
[9] = Metabolic stability in human liver microsomes assessed as half life at 100 uM preincubated for 10 mins followed by NADPH addition by LC/MS analysis; assay type: ADME, Microsome
[10] = Drug metabolism in monkey assessed as AUC(0 to 24 hrs) for AC- 423 metabolite at 100 mg/kg by UHPLC/FT-ICR-MS analysis; assay type: ADME, organism-based, Macaca mulatta; design: time < 24 hr, dose 100 mg/kg; conditions: rhesus monkey, in vivo
[11] = target: Cytochrome P450 2C19 (Homo sapiens, UniProt P33261); assay: Inhibition of CYP2C19 (unknown origin); assay type: ADME
[12] = Aqueous solubility of compound at pH 7.4; assay type: physicochemical
[13] = Metabolic stability in dog liver microsomes assessed as compound remaining at 100 uM […] followed by NADPH addition by LC/MS analysis; assay type: ADME, Canis lupus familiaris, Microsome; conditions: read-out: Stability
[14] = Drug metabolism in mouse assessed as AUC(0 to 24 hrs) for AC- 527 metabolite at 100 mg/kg by UHPLC/FT-ICR-MS analysis; assay type: ADME, organism-based; design: time < 24 hr, dose 100 mg/kg; conditions: in vivo
[15] = Drug metabolism in rat assessed as AUC(0 to 24 hrs) for AC-279 metabolite at 100 mg/kg by UHPLC/FT-ICR-MS analysis; assay type: ADME, organism-based; design: time < 24 hr, dose 100 mg/kg; conditions: in vivo
[16] = Plasma protein binding in monkey at 10 uM; assay type: ADME, cell-free, Macaca mulatta; conditions: rhesus monkey, read-out: PPB (converted)
[17] = Drug metabolism in human assessed as AUC(0 to 24 hrs) for AC- 423 metabolite at 80 mg/kg/day by UHPLC/FT-ICR-MS analysis; assay type: ADME, organism-based; design: time < 24 hr, dose 80 mg/kg/day; conditions: in vivo
[18] = AUC(0 to 24 hrs) in monkey at 100 mg/kg by UHPLC/FT-ICR-MS analysis; assay type: ADME, organism-based, Macaca mulatta; design: time < 24 hr, dose 100 mg/kg; conditions: rhesus monkey, in vivo
[19] = AUC(0 to 24 hrs) in human at 80 mg/kg/day by UHPLC/FT-ICR-MS analysis; assay type: ADME, organism-based; design: time < 24 hr, dose 80 mg/kg/day; conditions: in vivo
[20] = Dissociation constant, pKa of the compound; assay type: physicochemical
[21] = Drug metabolism in monkey assessed as AUC(0 to 24 hrs) for AC-279 metabolite at 100 mg/kg by UHPLC/FT-ICR-MS analysis; assay type: ADME, organism-based, Macaca mulatta; design: time < 24 hr, dose 100 mg/kg; conditions: rhesus monkey, in vivo
[22] = Plasma protein binding in rat at 10 uM; assay type: ADME, cell-free; conditions: read-out: PPB (converted)
[23] = Drug metabolism in rat assessed as AUC(0 to 24 hrs) for AC- 527 metabolite at 100 mg/kg by UHPLC/FT-ICR-MS analysis; assay type: ADME, organism-based; design: time < 24 hr, dose 100 mg/kg; conditions: in vivo
[24] = Plasma protein binding in human at 10 uM; assay type: ADME, cell-free; conditions: read-out: PPB (converted)
[25] = Lipophilicity, logD of the compound at pH 7.4; assay type: physicochemical; conditions: buffer
[26] = AUC(0 to 24 hrs) in mouse at 100 mg/kg by UHPLC/FT-ICR-MS analysis; assay type: ADME, organism-based; design: time < 24 hr, dose 100 mg/kg; conditions: in vivo
[27] = target: Cytochrome P450 2D6 (Homo sapiens, UniProt P10635); assay: Inhibition of CYP2D6 (unknown origin); assay type: ADME
[28] = Drug metabolism in rat assessed as AUC(0 to 24 hrs) for AC- 423 metabolite at 100 mg/kg by UHPLC/FT-ICR-MS analysis; assay type: ADME, organism-based; design: time < 24 hr, dose 100 mg/kg; conditions: in vivo
[29] = Drug metabolism in human assessed as AUC(0 to 24 hrs) for AC- 527 metabolite at 80 mg/kg/day by UHPLC/FT-ICR-MS analysis; assay type: ADME, organism-based; design: time < 24 hr, dose 80 mg/kg/day; conditions: in vivo
[30] = target: Cytochrome P450 2C9 (Homo sapiens, UniProt P11712); assay: Inhibition of CYP2C9 (unknown origin); assay type: ADME
[31] = Drug metabolism in mouse assessed as AUC(0 to 24 hrs) for AC-279 metabolite at 100 mg/kg by UHPLC/FT-ICR-MS analysis; assay type: ADME, organism-based; design: time < 24 hr, dose 100 mg/kg; conditions: in vivo
[32] = Drug distribution in Sprague-Dawley rat brain at 6 micromol/kg administered via gavage measured after 6 hrs by LC-MS/MS analysis; assay type: ADME, tissue-based; conditions: in vivo, po, dose 6 µmol/kg
[33] = Drug metabolism in monkey assessed as AUC(0 to 24 hrs) for AC- 527 metabolite at 100 mg/kg by UHPLC/FT-ICR-MS analysis; assay type: ADME, organism-based, Macaca mulatta; design: time < 24 hr, dose 100 mg/kg; conditions: rhesus monkey, in vivo
[34] = Drug metabolism in human assessed as AUC(0 to 24 hrs) for AC-279 metabolite at 80 mg/kg/day by UHPLC/FT-ICR-MS analysis; assay type: ADME, organism-based; design: time < 24 hr, dose 80 mg/kg/day; conditions: in vivo
[35] = target: T2, Cytochrome P450 1A2 (Homo sapiens, UniProt P05177); assay: Inhibition of CYP1A2 (unknown origin); assay type: ADME
T2 sequence (P05177 whole entry): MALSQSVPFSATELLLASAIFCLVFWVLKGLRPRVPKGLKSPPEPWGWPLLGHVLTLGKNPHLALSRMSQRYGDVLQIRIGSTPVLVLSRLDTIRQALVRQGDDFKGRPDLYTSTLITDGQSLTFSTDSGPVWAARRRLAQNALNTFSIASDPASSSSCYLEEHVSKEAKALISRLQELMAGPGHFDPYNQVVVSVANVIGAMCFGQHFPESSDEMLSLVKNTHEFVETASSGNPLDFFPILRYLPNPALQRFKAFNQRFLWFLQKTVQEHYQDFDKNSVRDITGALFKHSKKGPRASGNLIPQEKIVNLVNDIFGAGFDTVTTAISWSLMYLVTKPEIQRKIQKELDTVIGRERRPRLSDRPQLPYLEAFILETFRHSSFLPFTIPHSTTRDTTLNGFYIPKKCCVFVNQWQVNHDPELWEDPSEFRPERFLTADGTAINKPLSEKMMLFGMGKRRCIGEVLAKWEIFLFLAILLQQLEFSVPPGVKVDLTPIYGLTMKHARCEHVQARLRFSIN

[36] = Drug distribution in Sprague-Dawley rat brain at 6 micromol/kg administered via gavage measured after 0.5 hr by LC-MS/MS analysis; assay type: ADME, tissue-based; conditions: in vivo, po, dose 6 µmol/kg
[37] = Drug distribution in Sprague-Dawley rat brain at 6 micromol/kg administered via gavage measured after 2 hrs by LC-MS/MS analysis; assay type: ADME, tissue-based; conditions: in vivo, po, dose 6 µmol/kg
[38] = AUC(0 to 24 hrs) in rat at 100 mg/kg by UHPLC/FT-ICR-MS analysis; assay type: ADME, organism-based; design: time < 24 hr, dose 100 mg/kg; conditions: in vivo

T1 sequence (P28223 whole entry): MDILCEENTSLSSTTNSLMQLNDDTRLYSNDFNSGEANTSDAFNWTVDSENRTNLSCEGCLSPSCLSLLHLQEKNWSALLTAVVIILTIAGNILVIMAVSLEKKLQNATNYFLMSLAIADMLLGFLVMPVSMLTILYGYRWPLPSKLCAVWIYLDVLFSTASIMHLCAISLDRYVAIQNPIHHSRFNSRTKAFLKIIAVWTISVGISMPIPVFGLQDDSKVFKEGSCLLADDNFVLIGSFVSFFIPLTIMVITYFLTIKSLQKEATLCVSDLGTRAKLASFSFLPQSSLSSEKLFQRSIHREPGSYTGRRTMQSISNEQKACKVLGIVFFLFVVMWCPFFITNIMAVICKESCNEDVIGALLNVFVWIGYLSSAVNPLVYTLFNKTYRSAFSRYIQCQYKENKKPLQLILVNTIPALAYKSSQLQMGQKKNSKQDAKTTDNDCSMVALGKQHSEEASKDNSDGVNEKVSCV
Chain of Cytochrome P450 2D6 (P10635 whole entry): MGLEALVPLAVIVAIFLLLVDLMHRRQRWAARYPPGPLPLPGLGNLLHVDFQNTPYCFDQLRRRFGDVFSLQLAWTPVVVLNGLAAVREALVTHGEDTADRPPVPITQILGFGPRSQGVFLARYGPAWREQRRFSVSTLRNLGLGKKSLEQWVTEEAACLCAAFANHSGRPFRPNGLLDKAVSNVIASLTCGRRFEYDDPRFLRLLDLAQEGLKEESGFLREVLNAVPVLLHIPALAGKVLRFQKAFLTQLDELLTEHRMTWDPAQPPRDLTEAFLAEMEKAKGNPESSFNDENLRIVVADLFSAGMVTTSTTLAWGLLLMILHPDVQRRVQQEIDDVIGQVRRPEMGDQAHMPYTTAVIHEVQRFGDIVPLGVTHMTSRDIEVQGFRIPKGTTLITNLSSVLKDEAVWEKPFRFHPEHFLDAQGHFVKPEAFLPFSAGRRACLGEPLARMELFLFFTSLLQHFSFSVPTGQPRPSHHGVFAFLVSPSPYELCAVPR
Chain of Cytochrome P450 2C9 (P11712 whole entry): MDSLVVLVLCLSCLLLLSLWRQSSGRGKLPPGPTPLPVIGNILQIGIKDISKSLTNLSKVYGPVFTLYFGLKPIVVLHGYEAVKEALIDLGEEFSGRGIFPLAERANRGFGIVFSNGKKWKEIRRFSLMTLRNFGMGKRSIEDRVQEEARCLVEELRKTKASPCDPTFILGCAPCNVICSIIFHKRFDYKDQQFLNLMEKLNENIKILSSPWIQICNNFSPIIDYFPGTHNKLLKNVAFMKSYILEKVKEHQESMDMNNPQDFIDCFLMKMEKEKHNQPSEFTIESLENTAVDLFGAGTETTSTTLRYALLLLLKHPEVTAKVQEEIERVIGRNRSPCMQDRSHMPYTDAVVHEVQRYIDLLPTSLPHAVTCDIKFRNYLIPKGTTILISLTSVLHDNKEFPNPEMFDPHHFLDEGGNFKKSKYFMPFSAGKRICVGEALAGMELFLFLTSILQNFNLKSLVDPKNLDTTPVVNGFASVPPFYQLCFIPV
Chain of Cytochrome P450 2C19 (P33261 whole entry): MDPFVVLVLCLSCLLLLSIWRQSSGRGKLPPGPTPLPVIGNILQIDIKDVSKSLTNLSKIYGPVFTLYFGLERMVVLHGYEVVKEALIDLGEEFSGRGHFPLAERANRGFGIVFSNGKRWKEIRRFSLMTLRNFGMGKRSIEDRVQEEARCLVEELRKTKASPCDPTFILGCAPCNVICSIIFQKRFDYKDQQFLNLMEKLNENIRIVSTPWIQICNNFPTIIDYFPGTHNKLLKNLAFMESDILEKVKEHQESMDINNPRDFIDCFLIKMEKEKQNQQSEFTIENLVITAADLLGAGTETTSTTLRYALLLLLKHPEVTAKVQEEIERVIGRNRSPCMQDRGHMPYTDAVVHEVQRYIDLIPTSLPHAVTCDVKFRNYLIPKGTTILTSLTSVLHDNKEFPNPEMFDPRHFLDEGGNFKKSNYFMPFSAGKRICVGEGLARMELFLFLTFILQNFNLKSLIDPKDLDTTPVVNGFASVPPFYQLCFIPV
Chain of Voltage-gated inwardly rectifying potassium channel KCNH2 (Q12809 whole entry): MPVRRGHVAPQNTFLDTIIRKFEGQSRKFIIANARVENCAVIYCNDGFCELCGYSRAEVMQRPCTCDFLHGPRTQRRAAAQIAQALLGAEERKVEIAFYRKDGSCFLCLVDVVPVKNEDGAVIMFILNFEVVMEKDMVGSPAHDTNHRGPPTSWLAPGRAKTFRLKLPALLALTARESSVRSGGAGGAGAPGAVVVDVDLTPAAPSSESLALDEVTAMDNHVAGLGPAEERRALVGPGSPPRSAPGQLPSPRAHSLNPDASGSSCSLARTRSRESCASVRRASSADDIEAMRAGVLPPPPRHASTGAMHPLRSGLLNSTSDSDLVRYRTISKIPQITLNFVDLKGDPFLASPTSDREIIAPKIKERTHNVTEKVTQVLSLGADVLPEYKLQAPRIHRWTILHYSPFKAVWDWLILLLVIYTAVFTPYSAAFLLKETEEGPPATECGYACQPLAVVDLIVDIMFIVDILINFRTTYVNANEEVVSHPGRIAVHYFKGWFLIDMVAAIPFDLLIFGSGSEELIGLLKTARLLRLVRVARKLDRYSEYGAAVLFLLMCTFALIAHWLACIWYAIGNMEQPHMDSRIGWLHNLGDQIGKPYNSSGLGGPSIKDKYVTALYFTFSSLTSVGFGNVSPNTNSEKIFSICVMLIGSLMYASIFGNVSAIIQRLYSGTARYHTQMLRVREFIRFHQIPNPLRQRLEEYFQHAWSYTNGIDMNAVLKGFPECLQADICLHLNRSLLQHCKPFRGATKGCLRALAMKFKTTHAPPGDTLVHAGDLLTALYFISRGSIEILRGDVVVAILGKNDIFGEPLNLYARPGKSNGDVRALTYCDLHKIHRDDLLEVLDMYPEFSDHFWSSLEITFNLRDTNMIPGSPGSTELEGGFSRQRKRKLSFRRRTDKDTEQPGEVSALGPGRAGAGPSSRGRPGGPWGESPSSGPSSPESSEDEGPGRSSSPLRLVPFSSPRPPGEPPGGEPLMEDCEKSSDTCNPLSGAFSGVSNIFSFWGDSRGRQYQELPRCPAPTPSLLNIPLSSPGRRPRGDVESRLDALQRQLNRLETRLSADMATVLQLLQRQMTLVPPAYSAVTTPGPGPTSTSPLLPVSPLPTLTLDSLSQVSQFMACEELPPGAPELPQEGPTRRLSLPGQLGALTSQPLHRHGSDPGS

IC50 [1]: 872 nM
IC50 [2]: 18.3 nM
SMILES: CN1CCC(N(Cc2ccc(F)cn2)C(=O)NCc2ccc(CCC(F)(F)F)cc2)CC1

IC50 [1]: > 500 nM
IC50 [2]: > 500 nM
SMILES: CC(C)COc1ccc(CNC(=O)N(Cc2cn[nH]c2)C2CCN(C)CC2)cc1

IC50 [2]: 43.2 nM
SMILES: CC(C)COc1ccc(CNC(=O)N(Cc2ncc(F)cc2F)C2CCN(C)CC2)cc1

IC50 [1]: > 500 nM
IC50 [2]: > 500 nM
SMILES: CC(C)COc1ccc(CNC(=O)N(Cc2ccc(F)cc2)C2CCCC(N(C)C)C2)cc1 (stereo not given)

CLint scaled at 100 µM [3]: 11.9 mL/min/kg
CLint scaled at 100 µM [4]: 37.1 mL/min/kg
half-life at 100 µM [5]: 1.06 h
remaining at 100 µM [6]: 55%
remaining at 100 µM [7]: 66.8%
half-life at 100 µM [9]: 1.75 h
SMILES: CN1CCC(N(Cc2ccc(F)cn2)C(=O)NCc2ccc3c(c2)CC(C)(C)O3)CC1
IC50 [8]: 3610 nM

IC50 [1]: 101 nM
IC50 [2]: 110 nM
SMILES: CC(C)COc1ccc(CNC(=O)N(Cc2ccc(F)cc2)C2CCC(N(C)C)C2)cc1 (stereo not given)

AUC [10]: 2411 ng·h/mL
IC50 [11]: 49800 nM
solubility [12]: 21 µg/mL (≈ 49.1 µM)
remaining at 100 µM [13]: 29.7%
AUC [14]: 388 ng·h/mL
AUC [15]: 4320 ng·h/mL
fraction unbound at 10 µM [16]: 0.053
AUC [17]: 112 ng·h/mL
CLint scaled at 100 µM [3]: 11 mL/min/kg
AUC(0-t) at 24 h [18]: 7730 ng·h/mL
AUC at 24 h [19]: 836 ng·h/mL
pKa [20]: 8.44
CLint scaled at 100 µM [4]: 23.2 mL/min/kg
AUC [21]: 4800 ng·h/mL
fraction unbound at 10 µM [22]: 0.037
AUC [23]: 1976 ng·h/mL
fraction unbound at 10 µM [24]: 0.045
logD [25]: 2.78
AUC(0-t) at 24 h [26]: 4460 ng·h/mL
IC50 [27]: > 100000 nM
AUC [28]: 18577 ng·h/mL
AUC [29]: 236 ng·h/mL
IC50 [30]: > 100000 nM
AUC [31]: 8210 ng·h/mL
Ct [32]: 36 nmol/kg
AUC [33]: 1289 ng·h/mL
AUC [34]: 527 ng·h/mL
half-life at 100 µM [5]: 1.78 h
IC50 [35]: 52000 nM
remaining at 100 µM [6]: 68.5%
remaining at 100 µM [7]: 70.7%
Ct [36]: 136 nmol/kg
Ct [37]: 171 nmol/kg
half-life at 100 µM [9]: 1.96 h
AUC(0-t) at 24 h [38]: 3250 ng·h/mL
SMILES: CC(C)COc1ccc(CNC(=O)N(Cc2ccc(F)cc2)C2CCN(C)CC2)cc1 [PIMAVANSERIN]

IC50 [1]: > 500 nM
IC50 [2]: > 500 nM
SMILES: Cc1noc(C)c1CN(C(=O)NCc1ccc(OCC(C)C)cc1)C1CCN(C)CC1

The next lines start with the compound.

SMILES: CC(C)c1cc2cc(CNC(=O)N(Cc3ccc(F)cn3)C3CCN(C)CC3)ccc2o1
IC50 [1]: 64.9 nM

SMILES: CC(C)CCc1ccc(CNC(=O)N(Cc2ccc(F)cn2)C2CCN(C)CC2)cc1
IC50 [2]: 67.2 nM

SMILES: CN1CCC(N(Cc2ccc(F)cn2)C(=O)NCc2ccc(OCC(F)(F)F)c(Br)c2)CC1
IC50 [1]: 8.85 nM
IC50 [2]: 12 nM

SMILES: CC(C)COc1ccc(CNC(=O)N(Cc2ccc(F)nn2)C2CCN(C)CC2)cc1
IC50 [1]: > 500 nM

SMILES: CN1CCC(N(Cc2ccc(F)cn2)C(=O)NCc2ccc3c(c2)CCC(C)(C)O3)CC1
IC50 [1]: 127 nM

SMILES: CN1CCC(N(Cc2ccc(F)cn2)C(=O)NCc2ccc(OC(F)(F)C(F)(F)F)cc2)CC1
IC50 [2]: 33.4 nM
